Values quoted from earlier work in PubChem BioAssay AID1259409 (Chemical Carcinogenesis Research Information System (CCRIS), 2018).

Test system: rodent chemically induced tumor inhibition, incidence and multiplicity
Assay: CCRIS tumor inhibitor studies
Conditions: Route [Inhibitor]: ORAL, Promoter: NONE USED; for outcome: Target Tissue: Type of Lesion: GALLBLADDER: CARCINOMA IN SITU

## O=[Se](O)O
Carcinogen: 1,2-DIMETHYLHYDRAZINE, 540-73-8, Dose [Inhibitor]: 0, 10 MG/L IN DRINKING WATER FOR DURATION OF STUDY BEGINNING 7 D PRIOR TO CARCINOGEN TREATMENT (STUDY DURATION: 8 MO), Species: RAT, Strain/Sex: BD6/MALE, Target Tissue: Type of Lesion: INTESTINE: TUMOR, Dose [Carcinogen]: 20 MG/KG BW 1/WK FOR 20 WK
  tumour outcome (control, treated, inhibition, significance): 100%, 100%, 0%, not significant
Carcinogen: 1,2-DIMETHYLHYDRAZINE, 540-73-8, Dose [Inhibitor]: 4 PPM IN DRINKING WATER DAILY FOR 10-20 WK STARTING AFTER COMPLETION OF CARCINOGEN TREATMENT AND CONTINUING FOR DURATION, Species: RAT, Strain/Sex: SPRAGUE-DAWLEY/MALE, Target Tissue: Type of Lesion: COLON: ADENOCARCINOMA, VILLOUS ADENOMA, Dose [Carcinogen]: 20 MG/KG BW 1/WK FOR 20 WK
  tumour outcome (control, treated, inhibition, significance): 29/32 (91%), 63/69 (91%), 0%, not calculated
Carcinogen: 1,2-DIMETHYLHYDRAZINE, 540-73-8, Dose [Inhibitor]: 4 PPM IN DRINKING WATER DAILY FOR 20 WK STARTING SIMULTANEOUSLY WITH CARCINOGEN TREATMENT AND CONTINUING THROUGH END OF, Species: RAT, Strain/Sex: SPRAGUE-DAWLEY/MALE, Target Tissue: Type of Lesion: COLON: ADENOCARCINOMA, Dose [Carcinogen]: 20 MG/KG BW 1/WK FOR 20 WK
  tumour outcome (control, treated, inhibition, significance): 13/15 (87%), 6/15 (40%), 54%, p 0.025
Carcinogen: 1,2-DIMETHYLHYDRAZINE, 540-73-8, Dose [Inhibitor]: 4 PPM IN DRINKING WATER DAILY STARTING 2 WK PRIOR TO START OF CARCINOGEN TREATMENT AND CONTINUING FOR DURATION OF STUDY, Species: RAT, Strain/Sex: SPRAGUE-DAWLEY/MALE, Target Tissue: Type of Lesion: COLON: ADENOCARCINOMA, Dose [Carcinogen]: 20 MG/KG BW IN BACTERIOSTATIC SALINE 1/WK FOR 20 WK
  tumour outcome (control, treated, inhibition, significance): 9/14 (64%), 4/13 (31%), 52%, not calculated
Carcinogen: 2-(ACETYLAMINO)FLUORENE, 6292-55-3, Dose [Inhibitor]: 4 PPM IN DRINKING WATER DAILY STARTING 1 WK PRIOR TO CARCINOGEN TREATMENT AND CONTINUING FOR DURATION OF STUDY (STUDY DU, Species: RAT, Strain/Sex: SPRAGUE-DAWLEY/MALE, Target Tissue: Type of Lesion: LIVER: CARCINOMA, Dose [Carcinogen]: 0.03% IN DIET DAILY FOR 14 WK
  tumour outcome (control, treated, inhibition, significance): 9/13 (69%), 4/14 (29%), 58%, not calculated
Carcinogen: 3'-METHYL-4-DIMETHYLAMINOAZOBENZENE, 55-80-1, Dose [Inhibitor]: 6 PPM IN DRINKING WATER DAILY STARTING 1 WK PRIOR TO START OF CARCINOGEN TREATMENT AND CONTINUING FOR DURATION OF STUDY, Species: RAT, Strain/Sex: SPRAGUE-DAWLEY/MALE, Target Tissue: Type of Lesion: LIVER: ADENOCARCINOMA, Dose [Carcinogen]: 0.05% IN DIET DAILY FOR 8 WK
  tumour outcome (control, treated, inhibition, significance): 11/12 (92%), 7/15 (46%), 50%, p<0.01
Carcinogen: 3-METHYLCHOLANTHRENE, 56-49-5, Dose [Inhibitor]: 0, 0.5 PPM IN DRINKING WATER FOR 24 WK BEGINNING 4 WK PRIOR TO CARCINOGEN TREATMENT (STUDY DURATION: 24 WK), Species: HAMSTER, Strain/Sex: SYRIAN/FEMALE, Dose [Carcinogen]: 3 MG IN BEESWAX PELLET INSERTED INTO GALLBLADDER AT WK 4 OF STUDY
  outcome: 0/24 (0%), 3/20 (15%), -100%, not significant
Carcinogen: 3-METHYLCHOLANTHRENE, 56-49-5, Dose [Inhibitor]: 0, 0.5 PPM IN DRINKING WATER FOR 24 WK BEGINNING 4 WK PRIOR TO CARCINOGEN TREATMENT (STUDY DURATION: 24 WK), Species: HAMSTER, Strain/Sex: SYRIAN/FEMALE, Target Tissue: Type of Lesion: GALLBLADDER: INVASIVE ADENOCARCINOMA, Dose [Carcinogen]: 3 MG IN BEESWAX PELLET INSERTED INTO GALLBLADDER AT WK 4 OF STUDY
  tumour outcome (control, treated, inhibition, significance): 21/24 (88%), 11/20 (55%), 38%, p<0.05
Carcinogen: 3-METHYLCHOLANTHRENE, 56-49-5, Dose [Inhibitor]: 0, 2 PPM IN DRINKING WATER FOR 24 WK BEGINNING 4 WK PRIOR TO CARCINOGEN TREATMENT (STUDY DURATION: 24 WK), Species: HAMSTER, Strain/Sex: SYRIAN/FEMALE, Dose [Carcinogen]: 3 MG IN BEESWAX PELLET INSERTED INTO GALLBLADDER AT WK 4 OF STUDY
  outcome: 0/24 (0%), 7/21 (33%), -100%, p<0.05
Carcinogen: 3-METHYLCHOLANTHRENE, 56-49-5, Dose [Inhibitor]: 0, 2 PPM IN DRINKING WATER FOR 24 WK BEGINNING 4 WK PRIOR TO CARCINOGEN TREATMENT (STUDY DURATION: 24 WK), Species: HAMSTER, Strain/Sex: SYRIAN/FEMALE, Target Tissue: Type of Lesion: GALLBLADDER: INVASIVE ADENOCARCINOMA, Dose [Carcinogen]: 3 MG IN BEESWAX PELLET INSERTED INTO GALLBLADDER AT WK 4 OF STUDY
  tumour outcome (control, treated, inhibition, significance): 21/24 (88%), 10/21 (48%), 45%, p<0.05
Carcinogen: 3-METHYLCHOLANTHRENE, 56-49-5, Dose [Inhibitor]: 0, 2 UG/G/BW 2/WK FOR 20 WK (STUDY DURATION: 20 WK), Species: MOUSE, Strain/Sex: ICRC/MALE, Target Tissue: Type of Lesion: SKIN: PAPILLOMA, Dose [Carcinogen]: 50 UG IN 0.2 ML ACETONE 2/WK
  tumour outcome (control, treated, inhibition, significance): 100%, 100%, 0%, not significant
Carcinogen: 3-METHYLCHOLANTHRENE, 56-49-5, Dose [Inhibitor]: 0, 4 PPM IN DRINKING WATER FOR 24 WK BEGINNING 4 WK PRIOR TO CARCINOGEN TREATMENT (STUDY DURATION: 24 WK), Species: HAMSTER, Strain/Sex: SYRIAN/FEMALE, Dose [Carcinogen]: 3 MG IN BEESWAX PELLET INSERTED INTO GALLBLADDER AT WK 4 OF STUDY
  outcome: 0/24 (0%), 5/22 (23%), -100%, p<0.05
Carcinogen: 3-METHYLCHOLANTHRENE, 56-49-5, Dose [Inhibitor]: 0, 4 PPM IN DRINKING WATER FOR 24 WK BEGINNING 4 WK PRIOR TO CARCINOGEN TREATMENT (STUDY DURATION: 24 WK), Species: HAMSTER, Strain/Sex: SYRIAN/FEMALE, Target Tissue: Type of Lesion: GALLBLADDER: INVASIVE ADENOCARCINOMA, Dose [Carcinogen]: 3 MG IN BEESWAX PELLET INSERTED INTO GALLBLADDER AT WK 4 OF STUDY
  tumour outcome (control, treated, inhibition, significance): 21/24 (88%), 12/22 (55%), 38%, p<0.05
Carcinogen: 4-(METHYLNITROSAMINO)-1-(3-PYRIDYL)-1-BUTANONE, 64091-91-4, Dose [Inhibitor]: 0, 0.0022 G/KG DIET (0.00008 UMOL/D) BEGINNING 2 WK PRIOR TO CARCINOGEN DOSE AND CONTINUING FOR DURATION OF STUDY (STUDY, Species: MOUSE, Strain/Sex: STRAIN-A/FEMALE, Target Tissue: Type of Lesion: LUNG: ADENOMA, Dose [Carcinogen]: 9.2, 9.1 MG/MOUSE IN DRINKING WATER DURING 7 WK
  tumour outcome (control, treated, inhibition, significance): 28/28 (100%), 24/25 (96%), 4%, not significant
Carcinogen: 4-(METHYLNITROSAMINO)-1-(3-PYRIDYL)-1-BUTANONE, 64091-91-4, Dose [Inhibitor]: 0, 5 PPM IN DIET BEGINNING 1 WK PRIOR TO CARCINOGEN TREATMENT AND CONTINUING FOR 16 WK POST CARCINOGEN TREATMENT (STUDY, Species: MOUSE, Strain/Sex: STRAIN-A/FEMALE, Target Tissue: Type of Lesion: LUNG: ADENOMA, Dose [Carcinogen]: 10 UMOL IN 0.1 ML SALINE
  tumour outcome (control, treated, inhibition, significance): 100%, 100%, 0%, not significant
